From paper PMC9913023, “Repositioning linifanib as a potent anti-necroptosis agent for sepsis” (Cell Death Discovery, 2023)

Target: T1, RIPK1 (receptor-interacting serine/threonine-protein kinase 1) (Homo sapiens, UniProt Q13546)
T1 sequence (Q13546 1-671): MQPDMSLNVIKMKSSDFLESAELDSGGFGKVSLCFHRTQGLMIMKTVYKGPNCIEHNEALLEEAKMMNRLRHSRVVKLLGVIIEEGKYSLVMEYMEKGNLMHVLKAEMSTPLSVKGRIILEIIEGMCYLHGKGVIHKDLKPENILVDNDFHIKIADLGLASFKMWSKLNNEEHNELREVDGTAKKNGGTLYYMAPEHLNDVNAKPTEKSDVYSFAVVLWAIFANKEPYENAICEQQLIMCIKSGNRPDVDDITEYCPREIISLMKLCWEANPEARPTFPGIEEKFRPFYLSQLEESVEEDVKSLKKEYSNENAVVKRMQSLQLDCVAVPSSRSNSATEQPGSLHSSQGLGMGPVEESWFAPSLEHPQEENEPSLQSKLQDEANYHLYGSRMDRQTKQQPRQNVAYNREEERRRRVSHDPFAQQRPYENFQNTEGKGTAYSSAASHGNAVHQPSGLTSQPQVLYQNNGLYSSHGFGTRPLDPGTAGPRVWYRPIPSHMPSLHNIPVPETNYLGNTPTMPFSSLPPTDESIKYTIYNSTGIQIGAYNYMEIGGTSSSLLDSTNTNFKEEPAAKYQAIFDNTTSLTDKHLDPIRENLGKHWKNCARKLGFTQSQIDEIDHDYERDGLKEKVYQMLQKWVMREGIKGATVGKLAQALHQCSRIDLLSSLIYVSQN
Assay: ADP-Glo kinase assay with recombinant human RIPK1 ([…])
Type: biochemical

Cc1ccc(F)c(NC(=O)Nc2ccc(-c3cccc4[nH]nc(N)c34)cc2)c1 [linifanib]
IC50: 670 nM
